In patent US6727270B2, “Pyrrolylalkylidene-hydrazinecarboximidamide derivatives as 5-hydroxytryptamine-6 ligands” (Wyeth, priority 2002, dated 2004):
Where a name gives a salt, the structure may show the parent alone.

Legend:
[1] = target: T1, human cloned 5-HT6 receptors (Homo sapiens, UniProt P50406); experiment: 5-HT6 binding affinity, [3H]-LSD displacement on membranes of Hela cells expressing human cloned 5-HT6 receptors; conditions: [3H]-LSD 3.0 nM, Hela cell membranes, 120 min at room temperature
T1 construct: expressed in transfected cells; host or cells: Hela cells
Method: Comparative Evaluation of 5-HT6 Binding Affinity of Test Compounds
The affinity of test compounds for the serotonin 5-HT6 receptor is evaluated in the following manner. Cultured Hela cells expressing human cloned 5-HT6 receptors are harvested and centrifuged at low speed (1,000×g) for 10.0 min to remove the culture media. The harvested cells are suspended in half volume of fresh physiological phosphate buffered saline solution and recentrifuged at the same speed. This operation is repeated. The collected cells are then homogenized in ten volumes of 50 mM Tris.HCl (pH 7.4) and 0.5 mM EDTA. The homogenate is centrifuged at 40,000×g for 30.0 min and the precipitate is collected. The obtained pellet is resuspended in 10 volumes of Tris.HCl buffer and recentrifuged at the same speed. The final pellet is suspended in a small volume of Tris.HCl buffer and the tissue protein content is determined in aliquots of 10-25 μl volumes. Bovine Serum Albumin is used as the standard in the protein determination according to the method described in Lowry et al., J. Biol. Chem., 193:265 (1951). The volume of the suspended cell membranes is adjusted to give a tissue protein concentration of 1.0 mg/ml of suspension. The prepared membrane suspension (10 times concentrated) is aliquoted in 1.0 ml volumes and stored at −70° C. until used in subsequent binding experiments.
The reaction is allowed to proceed in the dark for 120 min at room temperature, at which time, the bound ligand-receptor complex is filtered off on a 96 well unifilter with a Packard Filtermate® 196 Harvester. The bound complex caught on the filter disk is allowed to air dry and the radioactivity is measured in a Packard TopCount® equipped with six photomultiplier detectors, after the addition of 40.0 μl Microscint®-20 scintillant to each shallow well. The unifilter plate is heat-sealed and counted in a PackardTopCount® with a tritium efficiency of 31.0%.
Binding in the presence of varying concentrations of test compound is expressed as a percentage of specific binding in the absence of test compound. The results are plotted as log % bound versus log concentration of test compound. […] A linear regression line of data points is plotted, from which the IC50 value is determined and the Ki value is determined based upon the following equation: […]
where L is the concentration of the radioactive ligand used and KD is the dissociation constant of the ligand for the receptor, both expressed in nM.

T1 sequence (P50406 whole entry): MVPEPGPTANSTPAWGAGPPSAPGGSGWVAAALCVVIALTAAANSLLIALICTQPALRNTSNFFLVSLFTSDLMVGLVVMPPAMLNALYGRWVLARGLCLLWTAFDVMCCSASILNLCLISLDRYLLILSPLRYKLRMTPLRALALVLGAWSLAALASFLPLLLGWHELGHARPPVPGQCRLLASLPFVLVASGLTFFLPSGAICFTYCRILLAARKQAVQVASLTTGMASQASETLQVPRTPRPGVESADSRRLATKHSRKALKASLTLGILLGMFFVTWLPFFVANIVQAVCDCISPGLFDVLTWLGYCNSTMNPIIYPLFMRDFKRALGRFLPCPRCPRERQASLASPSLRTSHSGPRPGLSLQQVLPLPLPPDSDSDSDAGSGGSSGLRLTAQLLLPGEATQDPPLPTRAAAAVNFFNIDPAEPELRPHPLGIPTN

Which Ki [1] does the source give for “2-{(E)-1-[1-(naphthylsulfonyl)-1H-pyrrol-3-yl]ethylidene}-1-hydrazine-carboximidamide [Example 16]” here?
Its Ki is 2 nM.

Which melting point does the source give for `C/C(=N\NC(=N)N)c1ccn(S(=O)(=O)c2ccccc2)c1` (as salt: hydrochloride) [Example 14, 2-{(E)-1-[1-(phenylsulfonyl)-1H-pyrrol-3-yl]ethylidene}hydrazinecarboximidamide] here?
The melting point was 220 to 221 °C.

Which melting point does the source give for `C/C(=N\NC(=N)N)c1ccn(S(=O)(=O)c2ccc(C)cc2)c1` (as salt: hydrochloride) [Example 15, 2-{(E)-1-[1-(4-methylphenylsulfonyl)-1H-pyrrol-3-yl]ethylidene}hydrazine-carboximidamide] here?
The melting point was 277 to 279 °C.

With `C/C(=N\NC(=N)N)c1ccn(S(=O)(=O)c2sc3ccc(Cl)cc3c2C)c1` (as salt: hydrochloride) [Example 17] as the molecule, how does the melting point read?
The melting point was 285 °C (dec.).

For `C/C(=N\NC(=N)N)c1ccn(S(=O)(=O)c2ccc(N)cc2)c1` (as salt: hydrochloride) [Example 18, 2-((E)-1-{1-[(4-aminophenyl)sulfonyl]-1H-pyrrol-3-yl}ethylidene)-1-hydrazine-carboximidamide], which melting point is on record?
The melting point was 198 to 200 °C.

Which melting point does the source give for `C/C(=N\NC(=N)N)c1ccn(S(=O)(=O)c2sc(N)nc2C)c1` (as salt: hydrochloride) [Example 19, 2-((E)-1-{1-[(2-amino-4-methyl-1,3-thiazol-5-yl)sulfonyl]-1H-pyrrol-3-yl}ethylidene)-1-hydrazinecarboximidamide] here?
The melting point was 225 °C (dec.).

Which Ki [1] does the source give for `N=C(N)N/N=C1\CCCc2c1ccn2S(=O)(=O)c1ccccc1` [Example 7, 2-[1-(Phenylsulfonyl)-1,5,6,7-tetrahydro-4H-indol-4-ylidine]-1-hydrazinecarboximidamide Hydrochloride] here?
Its Ki is 37 nM.

For `C/C(=N\NC(=N)N)c1c(C)cn(S(=O)(=O)c2ccccc2)c1C` [Example 13, 2-{(E)-1-[2,4-Dimethyl-1-(phenylsulfonyl)-1H-pyrrol-3-yl]ethylidine} hydrazinecarboximidamide Hydrochloride], which Ki [1] is on record?
The Ki was 6 nM.

For `C/C(=N\NC(=N)N)c1ccn(S(=O)(=O)c2ccccc2)c1` [Example 14, 2-{(E)-1-[1-(phenylsulfonyl)-1H-pyrrol-3-yl]ethylidene}hydrazinecarboximidamide], which Ki [1] is on record?
Its Ki is 1.5 nM.

With `C/C(=N\NC(=N)N)c1ccn(S(=O)(=O)c2ccc(C)cc2)c1` [Example 15, 2-{(E)-1-[1-(4-methylphenylsulfonyl)-1H-pyrrol-3-yl]ethylidene}hydrazine-carboximidamide] as the molecule, how does the Ki [1] read?
The Ki was 5.5 nM.

For `C/C(=N\NC(=N)N)c1ccn(S(=O)(=O)c2sc3ccc(Cl)cc3c2C)c1` [Example 17], which Ki [1] is on record?
Its Ki is 32 nM.

With `C/C(=N\NC(=N)N)c1ccn(S(=O)(=O)c2ccc(N)cc2)c1` [Example 18, 2-((E)-1-{1-[(4-aminophenyl)sulfonyl]-1H-pyrrol-3-yl}ethylidene)-1-hydrazine-carboximidamide] as the molecule, how does the Ki [1] read?
The Ki was 0.6 nM.

For `C/C(=N\NC(=N)N)c1ccn(S(=O)(=O)c2sc(N)nc2C)c1` [Example 19, 2-((E)-1-{1-[(2-amino-4-methyl-1,3-thiazol-5-yl)sulfonyl]-1H-pyrrol-3-yl}ethylidene)-1-hydrazinecarboximidamide], which Ki [1] is on record?
The Ki was 3.75 nM.
